System: inhibitory dsRNA
Assay: K9 protein-RNA complex by electrophoresis of labeled inhibitory dsRNA and K9 protein
Type: binding
Details: 4 M Urea, 10 mM Hepes, pH 8.15; 1.5% agarose gel; FIG. 5
Protocol: Inhibitory dsRNA 3′-labeled with Dy547 is purchased from Dharmacon (Lafayette, Colo.). Labeled and unlabeled inhibitory dsRNA solutions are diluted to 4 μM in 4 M Urea, 10 mM Hepes, pH 8.15. […] Labeled and unlabeled protein solutions are diluted to 3 μM in 4M Urea.
Labeled and unlabeled RNA and protein are used in separate binding reactions. Samples are run on a 1.5% TAE-agarose gel for 35 minutes at 110 volts.
A typhoon phosphoimager(GE) is used to visualize the cy5-only, DY547-only and cy5/DY547 labeled RNA protein complexes. Filters are employed to separately detect Dy547 (FIG. 5A) and cy5 (FIG. 5B) fluorescent labels. To image all fluorescence on the gel, cy5-filtered and dy547-filtered images are overlayed (FIG. 5C).

K9: modified HBV core protein (contains E77C), 9-lysine C-terminal tail, His tag, SEQ ID NO: 10 [Mutant K9]
complex formation of K9 protein with inhibitory dsRNA (shifted band): form a complex in solution

Source: patent US20110293727A1, “CHIMERIC THERAPEUTICS, COMPOSITIONS, AND METHODS FOR USING SAME” (priority 2008, published 2011)
